The values that follow come from ChEMBL document CHEMBL1201862, “PubChem BioAssay data set” (2004).

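Following 48 hours of exposure in 96-well plates, responses at five concentrations were used to interpolate endpoints linearly. GI50 = concentration required for 50% inhibition of growth.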 The source made the active and inactive calls. No stated cut-off is given here; in the data, active = GI50 up to about 1.1 µM and inactive = higher.

Among the test systems are HOP-18; DMS-114; SNB-78; XF498; M19-MEL; DLD-1; LXFL 529; KM-20L2; RXF 631.
Holding throughout (test): NCI-60 cell line screen, 48 h

With `COc1ccc2c(c1OC)C1=C(C2=O)c2cc3c(cc2CCN1)OCO3`, the GI50 in the experiment with HOP-18 was 52.5 µM (inactive); in the experiment on DMS-114 it was 22.6 µM (inactive); in the experiment on SNB-78, 89.7 µM (inactive); with XF498, 40.3 µM (inactive); in the experiment with M19-MEL, 42.1 µM (inactive); in the experiment on DLD-1, 42.4 µM (inactive). Besides, the GI50 was 33.1 µM (inactive) in the experiment with LXFL 529 and 17.9 µM (inactive) in the experiment on KM-20L2.

In the case of `CC(C)(C)C(=O)CC(=O)C(C)(C)C.CC(C)(C)C(=O)CC(=O)C(C)(C)C.[SiH4]`, the GI50 in the experiment with HOP-18 was 2.36 µM (inactive); in the experiment with DMS-114, 0.566 µM (active); in the experiment with XF498, 0.519 µM (active); with M19-MEL, 1.86 µM (inactive); in the experiment on DLD-1, 0.436 µM (active); with LXFL 529 it was 1.56 µM (inactive). Also, the GI50 in the experiment on KM-20L2 was 1.62 µM (inactive).

For the compound `O=C1C(c2cnc3ccccc3n2)=C(O)c2ccccc21`, the GI50 in the experiment on DMS-114, with SNB-78, in the experiment on RXF 631, in the experiment with M19-MEL, in the experiment with LXFL 529 and in the experiment on KM-20L2 was > 100 µM (inactive) each time.

`Cc1cccc2c1NC(c1c(C)[nH]c3ccccc13)C2` (stereo not drawn): the GI50 with HOP-18 was > 100 µM (inactive); in the experiment on DMS-114, 56.1 µM (inactive); with XF498, 51.9 µM (inactive); with RXF 631, > 100 µM (inactive); in the experiment on M19-MEL, > 100 µM (inactive); with DLD-1 it was > 100 µM (inactive). Further, the GI50 with LXFL 529 and in the experiment with KM-20L2 was > 100 µM (inactive) throughout.

Regarding `COC1C=CC23c4cc5c(cc4C(O)OC2CN(C)C3C1)OCO5` (stereo not drawn), the GI50 is 1.26 µM (inactive) in the experiment on DMS-114, 1.52 µM (inactive) in the experiment on M19-MEL, 1.45 µM (inactive) in the experiment with LXFL 529 and 1.29 µM (inactive) with KM-20L2.

For the compound `COc1ccc(/C=N/Nc2nc(-c3cc4oc(=O)n(C)c4cc3Cl)cs2)cc1OC`, the GI50 in the experiment on HOP-18 was > 100 µM (inactive); in the experiment with DMS-114, 5.87 µM (inactive); in the experiment on SNB-78, 37.2 µM (inactive); in the experiment with XF498, 10.7 µM (inactive); with RXF 631, 21 µM (inactive); in the experiment on M19-MEL, 7.8 µM (inactive). Besides, the GI50 was 10.7 µM (inactive) with DLD-1, 15.3 µM (inactive) in the experiment with LXFL 529 and 15.7 µM (inactive) in the experiment on KM-20L2.

With `O=C1Cc2c([nH]c3ccccc23)-c2ccccc2N1` [PAULLONE], the GI50 with HOP-18 was > 100 µM (inactive); in the experiment on SNB-78, > 100 µM (inactive); in the experiment on XF498, 31.6 µM (inactive); in the experiment with M19-MEL it was 53.1 µM (inactive); with DLD-1, 33.3 µM (inactive); in the experiment with LXFL 529 it was 19.1 µM (inactive). Also, the GI50 in the experiment with KM-20L2 is 21.4 µM (inactive).

On to `COc1ccc(C2=NN(C(=O)COc3ccc(Cl)cc3)C(O)(c3ccc(Cl)cc3)C2)cc1` (stereo not drawn), for which the GI50 is 66.5 µM (inactive) in the experiment with SNB-78; > 100 µM (inactive) with XF498; > 100 µM (inactive) in the experiment on RXF 631; > 100 µM (inactive) with DLD-1; > 100 µM (inactive) with LXFL 529; > 100 µM (inactive) in the experiment on KM-20L2.

As for `Brc1ccccc2cc(-c3ccccc3)nc1-2`, the GI50 in the experiment with HOP-18 was 3.78 µM (inactive); in the experiment with DMS-114 it was 2.16 µM (inactive); with SNB-78, 2.85 µM (inactive); in the experiment on XF498 it was 1.98 µM (inactive); with RXF 631 it was 11.9 µM (inactive); in the experiment on DLD-1, 1.94 µM (inactive). Moreover, the values for the GI50 in the experiment on LXFL 529 and with KM-20L2 were 1.73 µM (inactive) and 1.71 µM (inactive), respectively.

Regarding `CC1(C)CC(Nc2ccc(Nc3ccccc3)cc2)CC(C)(C)N1`, the GI50 with HOP-18 was > 100 µM (inactive); in the experiment on DMS-114 it was 21.2 µM (inactive); in the experiment with SNB-78 it was 66.2 µM (inactive); in the experiment with XF498, 22.5 µM (inactive); in the experiment with RXF 631 it was 18.6 µM (inactive); in the experiment on M19-MEL, 35.2 µM (inactive). Besides, the GI50 is 70.5 µM (inactive) in the experiment on DLD-1, 25.1 µM (inactive) in the experiment with LXFL 529 and 26.1 µM (inactive) in the experiment with KM-20L2.

With `Cc1ccc(N(C(=O)CC(=O)N2N=C(c3ccccc3)C(/N=N/c3ccc([N+](=O)[O-])cc3)C2=O)C(=O)c2ccc(Cl)cc2)cc1` (stereo not drawn), the GI50 is 27.4 µM (inactive) in the experiment with HOP-18; 20 µM (inactive) with DMS-114; 6.95 µM (inactive) with SNB-78; 21.8 µM (inactive) in the experiment with XF498; 26 µM (inactive) in the experiment on M19-MEL; 21.2 µM (inactive) in the experiment on DLD-1. In addition, the GI50 in the experiment on LXFL 529 is 15.5 µM (inactive); in the experiment on KM-20L2, 23.3 µM (inactive).

Consider `CCOc1cc[n+]([C-](C#N)C#N)cc1`, for which the GI50 in the experiment with DMS-114, in the experiment on SNB-78, in the experiment on XF498, with RXF 631, in the experiment with M19-MEL and in the experiment on DLD-1 was > 100 µM (inactive) each time. For the same compound, the GI50 with LXFL 529 and in the experiment with KM-20L2 was > 100 µM (inactive) each time.

Regarding `COC12OCCN(C)C1=CC(=O)C1(C)N=NCC12` (stereo not drawn), the GI50 with HOP-18, in the experiment on DMS-114, with SNB-78, with M19-MEL, in the experiment on DLD-1 and in the experiment on LXFL 529 was > 100 µM (inactive) in each case.

Consider `N=C(N)NCCCC(Nc1c2ccccc2nc2ccccc12)C(=O)O` (stereo not drawn), for which the GI50 was 75.3 µM (inactive) in the experiment on RXF 631; > 100 µM (inactive) in the experiment with M19-MEL; > 100 µM (inactive) with DLD-1; > 100 µM (inactive) with LXFL 529; > 100 µM (inactive) in the experiment on KM-20L2.

`CC(C)CC(=O)NS(=O)(=O)c1ccccc1`: the GI50 with HOP-18, with DMS-114, in the experiment on SNB-78, in the experiment on XF498, in the experiment with RXF 631 and in the experiment on M19-MEL was > 100 µM (inactive) each time. Also, the GI50 with DLD-1, in the experiment with LXFL 529 and in the experiment with KM-20L2 was > 100 µM (inactive) throughout.

For `CCCCc1c2c(nc3c1CCc1cc4cc5c(nc4nc1-3)-c1nc3c(c(CCCC)c1CC5)CCCC3)CCCC2`, the GI50 with DMS-114 was 26.8 µM (inactive); with SNB-78 it was > 100 µM (inactive); in the experiment with M19-MEL, 54 µM (inactive); in the experiment on DLD-1, 59.8 µM (inactive); in the experiment with LXFL 529, 18 µM (inactive); in the experiment with KM-20L2 it was 22.8 µM (inactive).

For `Cc1ccc(NC(=O)C2C(=O)N(c3ccc(C)c(C)c3)C(=O)/C2=N/O)cc1C` (stereo not drawn), the GI50 with HOP-18, with DMS-114, with SNB-78, in the experiment with XF498, in the experiment with RXF 631 and in the experiment on DLD-1 was > 100 µM (inactive) throughout. For the same compound, the GI50 in the experiment with LXFL 529 and with KM-20L2 was > 100 µM (inactive) each time.

`CC(C)(C)C1=CC(=N/N=c2\scc(-c3ccccc3)n2-c2ccccc2)C=C(C(C)(C)C)C1=O`: the GI50 in the experiment with HOP-18, with DMS-114, with SNB-78, in the experiment on XF498, in the experiment on M19-MEL and in the experiment on DLD-1 was > 100 µM (inactive) throughout. For the same compound, the GI50 in the experiment on LXFL 529 and in the experiment with KM-20L2 was > 100 µM (inactive) throughout.

Take `C=C1c2[nH]c3c([N+](=O)[O-])c(OC)ccc3c2CCN1C(C)=O`: the GI50 is > 100 µM (inactive) in the experiment with DMS-114; > 100 µM (inactive) in the experiment with SNB-78; 22.1 µM (inactive) in the experiment on DLD-1; > 100 µM (inactive) in the experiment with LXFL 529; > 100 µM (inactive) in the experiment on KM-20L2.

On to `COC1(OC)C2(Cl)C(Cl)=C(Cl)C1(Cl)C1C2C2CC1(C(=O)O)c1ccccc12` (stereo not drawn), for which the GI50 is 41.2 µM (inactive) in the experiment on HOP-18; 17.5 µM (inactive) in the experiment on DMS-114; 22.4 µM (inactive) with RXF 631; 18.9 µM (inactive) in the experiment with M19-MEL; 17.8 µM (inactive) in the experiment on DLD-1; 14.6 µM (inactive) in the experiment on LXFL 529. In the experiment with KM-20L2, the GI50 is 24.2 µM (inactive).

As for `O=C(NNc1ccccc1)/C(=C/c1ccc2c(c1)OCO2)NC(=O)c1ccccc1`, the GI50 in the experiment on HOP-18, with SNB-78, with XF498, in the experiment with DLD-1, with LXFL 529 and in the experiment on KM-20L2 was > 100 µM (inactive) each time.

Take `CC(O[Si](C)(C)C)C1C=CC(C)n2c(=O)n(-c3ccccc3)c(=O)n21` (stereo not drawn): the GI50 with HOP-18, with DMS-114, with SNB-78, with M19-MEL and with DLD-1 was > 100 µM (inactive) throughout.
